Laboratory results taken from ChEMBL document CHEMBL4819077, “Design, synthesis, and biological evaluation of diosgenin-indole derivatives as dual-functional agents for the treatment of Alzheimer's disease” (Eur J Med Chem, 2021).
Activity calls are given as the source filed them. The rule behind the calls is not given here.

Tests used:
[1] = tested on: SH-SY5Y; assay: Neuroprotection against 6-OHDA-induced oxidative stress in human SH-SY5Y cells assessed as cell protection at 1 mM preincubated for 2 hr before 6-OHDA challenge and measured after 24 hrs by MTT assay; format: functional; conditions: time 26 hrs
[2] = tested on: SH-SY5Y; assay: Neuroprotection against H202-induced oxidative stress in human SH-SY5Y cells assessed as cell protection at 1 mM preincubated for 2 hr before H202 challenge and measured after 24 hrs by MTT assay; format: functional; conditions: time 26 hrs
[3] = tested on: SH-SY5Y; assay: Neuroprotection against Abeta-induced oxidative stress in human SH-SY5Y cells assessed as cell protection at 1 mM incubated for 2 hr before Abeta(1-42) challenge and measured after 24 hrs by MTT assay; format: functional; conditions: time 26 hrs
[4] = tested on: Mus musculus; assay: Neuroprotection against icv infused amyloid beta (1 to 42)-induced ICR mouse model of Alzheimer's disease assessed as rescue of pyknotic nucleus in hippocampal at to 2 mg/kg, po administered daily for 7 days by HE staining; format: functional, organism-based; conditions: time 7.0 day
[5] = tested on: Mus musculus; assay: Improvement in learning and spatial memory in icv infused amyloid beta (1 to 42)-induced ICR mouse model of Alzheimer's disease assessed as improved target quadrant exploration time at to 2 mg/kg, po administered daily for 7 days starting from 7 days post surgery by Morris water maze test; format: functional, organism-based; conditions: time 7.0 day
[6] = tested on: Mus musculus; assay: Neuroprotection against icv infused amyloid beta (1 to 42)-induced ICR mouse model of Alzheimer's disease assessed as rescue of decrease neuronal cells in hippocampal at to 2 mg/kg, po administered daily for 7 days by HE staining; format: functional, organism-based; conditions: time 7.0 day
[7] = tested on: SH-SY5Y; assay: Neuroprotection against 6-OHDA-induced oxidative stress in human SH-SY5Y cells assessed as cell protection at 10 uM preincubated for 2 hr before 6-OHDA challenge and measured after 24 hrs by MTT assay; format: functional; conditions: time 26 hrs
[8] = tested on: SH-SY5Y; assay: Neuroprotection against Abeta-induced oxidative stress in human SH-SY5Y cells assessed as cell protection at 10 uM incubated for 2 hr before Abeta(1-42) challenge and measured after 24 hrs by MTT assay; format: functional; conditions: time 26 hrs
[9] = tested on: SH-SY5Y; assay: Neuroprotection against H202-induced oxidative stress in human SH-SY5Y cells assessed as cell protection at 10 uM preincubated for 2 hr before H202 challenge and measured after 24 hrs by MTT assay; format: functional
[10] = tested on: SH-SY5Y; assay: Cytotoxicity against human SH-SY5Y cells assessed as reduction in cell viability measured after 24 hrs by MTT assay; format: cell-based
[11] = tested on: SH-SY5Y; assay: Neuroprotection against 6-OHDA-induced cytotoxicity in human SH-SY5Y cells assessed as increase in cell viability at 100 uM incubated for 2 hr before 6-OHDA challenge and measured after 24 hrs by MTT assay; format: functional, cell-based; conditions: time 26.0 hrs
[12] = tested on: SH-SY5Y; assay: Neuroprotection against Abeta-induced cytotoxicity in human SH-SY5Y cells assessed as increase in cell viability upto 50 uM incubated for 2 hr before Abeta(1-42) challenge and measured after 24 hrs by MTT assay; format: functional, cell-based; conditions: dose microM <=50, time 2.0 hrs
[13] = Acute toxicity in ICR mouse assessed as abnormalities in lung at 500 mg/kg, po administered […] 14 days by HE staining based assay; format: organism-based; conditions: in vivo, 336 h, time 14 day
[14] = tested on: Mus musculus; assay: Neuroprotection against icv infused amyloid beta (1 to 42)-induced ICR mouse model of Alzheimer's disease assessed as rescue of pyknotic nucleus in hippocampal at to 4 to 20 mg/kg, po administered daily for 7 days by HE staining; format: functional, organism-based; conditions: dose 4-20 mg/kg, time 7.0 day
[15] = tested on: SH-SY5Y; assay: Neuroprotection against Abeta-induced cytotoxicity in human SH-SY5Y cells assessed as increase in cell viability at 100 uM incubated for 2 hr before Abeta(1-42) challenge and measured after 24 hrs by MTT assay; format: functional, cell-based
[16] = Acute toxicity in ICR mouse assessed as abnormalities in kidney at 500 mg/kg, po administered […] 14 days by HE staining based assay; format: organism-based; conditions: in vivo, 336 h, time 14 day
[17] = Acute toxicity in ICR mouse assessed as body weight loss at 500 mg/kg, po administered as single dose measured after 14 days; format: organism-based; conditions: in vivo, 336 h, time 14 day
[18] = tested on: SH-SY5Y; assay: Neuroprotection against H202-induced human SH-SY5Y cell damage assessed as decrease in ROS accumulation at 50 uM incubated for 2 hr before H202 challenge and measured after 24 hrs by DCFDA staining based fluorescence microscopy; format: functional; conditions: time 26.0 hrs
[19] = Acute toxicity in ICR mouse assessed as abnormalities in heart at 500 mg/kg, po administered […] 14 days by HE staining based assay; format: organism-based; conditions: in vivo, 336 h, time 14 day
[20] = tested on: Mus musculus; assay: Improvement in learning and spatial memory in icv infused amyloid beta (1 to 42)-induced ICR mouse model of Alzheimer's disease assessed as improved target quadrant exploration time at 4 to 20 mg/kg, po administered daily for 7 days starting from 7 days post surgery by Morris water maze test; format: functional, organism-based; conditions: dose 4-20 mg/kg, time 7.0 day
[21] = Acute toxicity in ICR mouse assessed as abnormalities in liver at 500 mg/kg, po administered […] 14 days by HE staining based assay; format: organism-based; conditions: in vivo, 336 h, time 14 day
[22] = tested on: SH-SY5Y; assay: Neuroprotection against H202-induced human SH-SY5Y cell damage assessed as decrease in ROS accumulation at 10 uM incubated for 2 hr before H202 challenge and measured after 24 hrs by DCFDA staining based fluorescence microscopy; format: functional; conditions: time 26.0 hrs
[23] = tested on: Mus musculus; assay: Neuroprotection against icv infused amyloid beta (1 to 42)-induced ICR mouse model of Alzheimer's disease assessed as rescue of decrease neuronal cells in hippocampal at to 4 to 20 mg/kg, po administered daily for 7 days by HE staining; format: functional, organism-based; conditions: dose 4-20 mg/kg, time 7.0 day
[24] = Acute toxicity in ICR mouse assessed as abnormalities in spleen at 500 mg/kg, po administered […] 14 days by HE staining based assay; format: organism-based; conditions: in vivo, 336 h, time 14 day
[25] = Acute toxicity in ICR mouse assessed as abnormal behaviors at 500 mg/kg, po administered as single dose measured after 14 days; format: organism-based; conditions: in vivo, 336 h, time 14 day
[26] = Acute toxicity in ICR mouse assessed as mortality at 500 mg/kg, po administered as single dose measured after 14 days; format: organism-based; conditions: in vivo, 336 h, time 14 day
[27] = tested on: SH-SY5Y; assay: Neuroprotection against H202-induced cytotoxicity in human SH-SY5Y cells assessed as increase in cell viability upto 50 uM incubated for 2 hr before H202 challenge and measured after 24 hrs by MTT assay; format: functional, cell-based; conditions: dose microM <=50, time 2.0 hrs
[28] = tested on: SH-SY5Y; assay: Neuroprotection against 6-OHDA-induced cytotoxicity in human SH-SY5Y cells assessed as increase in cell viability upto 50 uM incubated for 2 hr before 6-OHDA challenge and measured after 24 hrs by MTT assay; format: functional, cell-based; conditions: dose microM <=50, time 2.0 hrs
[29] = tested on: SH-SY5Y; assay: Neuroprotection against H202-induced cytotoxicity in human SH-SY5Y cells assessed as increase in cell viability at 100 uM incubated for 2 hr before H202 challenge and measured after 24 hrs by MTT assay; format: functional, cell-based; conditions: time 26.0 hrs

SMILES	Activity [7]	Activity [8]	Activity [9]	Activity [10]	also measured
CC(=O)N[C@@H](CS)C(=O)O [ACETYLCYSTEINE]	–	–	–	–	Activity [1]: 83.59%; Activity [2]: 84.73%; Activity [3]: 67.6%
COc1cc2c(cc1OC)C(=O)C(CC1CCN(Cc3ccccc3)CC1)C2 (stereo not drawn)	–	–	–	–	Activity [4]: Active; Activity [5]: Active; Activity [6]: Active
C[C@@H]1CC[C@@]2(OC1)O[C@H]1C[C@H]3[C@@H]4CCc5cc(OC(=O)NCCc6c[nH]c7ccccc67)ccc5[C@H]4CC[C@]3(C)[C@H]1[C@@H]2C	40.6%	42.7%	21.5%	Non-Toxic	–
Cc1ccc2[nH]cc(CCNC(=O)Oc3ccc4c(c3)CC[C@@H]3[C@@H]4CC[C@]4(C)[C@@H]5[C@H](C[C@@H]34)O[C@]3(CC[C@@H](C)CO3)[C@H]5C)c2c1	27.7%	34.2%	49.1%	Non-Toxic	–
COc1ccc2c(CCNC(=O)Oc3ccc4c(c3)CC[C@@H]3[C@@H]4CC[C@]4(C)[C@@H]5[C@H](C[C@@H]34)O[C@]3(CC[C@@H](C)CO3)[C@H]5C)c[nH]c2c1	47.7%	43.7%	50%	Non-Toxic	–
C[C@@H]1CC[C@@]2(OC1)O[C@H]1C[C@H]3[C@@H]4CCc5cc(OC(=O)NCCc6c[nH]c7cc(F)ccc67)ccc5[C@H]4CC[C@]3(C)[C@H]1[C@@H]2C	40.2%	42.5%	35.8%	Non-Toxic	–
COc1ccc2[nH]cc(CCNC(=O)Oc3ccc4c(c3)CC[C@@H]3[C@@H]4CC[C@]4(C)[C@@H]5[C@H](C[C@@H]34)O[C@]3(CC[C@@H](C)CO3)[C@H]5C)c2c1	38.4%	54.4%	52.9%	Non-Toxic	Activity [11]: inactive; Activity [12]: Active; Activity [13]: Non-Toxic; Activity [14]: Active; Activity [15]: inactive; Activity [16]: Non-Toxic; Activity [17]: Non-Toxic; Activity [18]: inactive; Activity [19]: Non-Toxic; Activity [20]: Active; Activity [21]: Non-Toxic; Activity [22]: Active; Activity [23]: Active; Activity [24]: Non-Toxic; Activity [25]: Non-Toxic; Activity [26]: Non-Toxic; Activity [27]: Active; Activity [28]: Active; Activity [29]: inactive
COc1ccc2[nH]cc(CC(=O)Oc3ccc4c(c3)CC[C@@H]3[C@@H]4CC[C@]4(C)[C@@H]5[C@H](C[C@@H]34)O[C@]3(CC[C@@H](C)CO3)[C@H]5C)c2c1	57.4%	30.4%	26.9%	Non-Toxic	–
C[C@@H]1CC[C@@]2(OC1)O[C@H]1C[C@H]3[C@@H]4CCc5cc(OC(=O)Cc6c[nH]c7ccccc67)ccc5[C@H]4CC[C@]3(C)[C@H]1[C@@H]2C	61.1%	20.6%	18.4%	Non-Toxic	–
